According to PubChem BioAssay (NCI):
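Growth conditions: 96-well plates. Treatment: test compound, 48 hours, 5 concentrations. Analysis: linear interpolation between bracketing concentrations; unreached endpoints set to highest concentration. GI50: concentration for 50% inhibition of growth. Definition used: TGI = concentration required for complete inhibition of growth.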

How the values were obtained:
Experiment in all cases: NCI tumour cell line growth inhibition, 48 h
A549 NSCLC = system: A549 NSCLC
ACHN renal = system: ACHN renal
EKVX NSCLC = system: EKVX NSCLC
K-562 leukemia = system: K-562 leukemia
KM12 colon = system: KM12 colon
OVCAR-5 ovarian = system: OVCAR-5 ovarian
SF-268 CNS = system: SF-268 CNS
SK-OV-3 ovarian = system: SK-OV-3 ovarian
U251 CNS = system: U251 CNS
UO-31 renal = system: UO-31 renal

CC(c1ccccc1)/[N+]([O-])=C/c1ccccc1 (stereo unspecified)
TGI (A549 NSCLC): > 100 µM | TGI (ACHN renal): > 100 µM | TGI (EKVX NSCLC): > 100 µM | TGI (K-562 leukemia): > 100 µM | TGI (KM12 colon): > 100 µM | TGI (OVCAR-5 ovarian): > 100 µM | TGI (SF-268 CNS): > 100 µM | TGI (SK-OV-3 ovarian): > 100 µM | TGI (U251 CNS): > 100 µM | TGI (UO-31 renal): > 100 µM

C[C@]12CCc3sc(Nc4ccc(O)cc4)nc3C1=CC[C@@H]1[C@@H]2CC[C@]2(C)C(=O)CC[C@@H]12
GI50 (A549 NSCLC): 4.42 µM | TGI (A549 NSCLC): > 100 µM | GI50 (ACHN renal): 2.92 µM | TGI (ACHN renal): 9.29 µM | GI50 (EKVX NSCLC): 10.4 µM | TGI (EKVX NSCLC): > 100 µM | GI50 (K-562 leukemia): 2.96 µM | TGI (K-562 leukemia): > 100 µM | GI50 (OVCAR-5 ovarian): 3.91 µM | TGI (OVCAR-5 ovarian): > 100 µM | GI50 (SF-268 CNS): 3.37 µM | TGI (SF-268 CNS): > 100 µM | GI50 (SK-OV-3 ovarian): 12.3 µM | TGI (SK-OV-3 ovarian): > 100 µM | GI50 (U251 CNS): 3.06 µM | TGI (U251 CNS): 21.9 µM | GI50 (UO-31 renal): 1.54 µM | TGI (UO-31 renal): 2.9 µM

NC(=S)N/N=C1\c2ccccc2CCC1CCC1(O)CCc2ccccc2C1=O (stereo unspecified)
TGI (A549 NSCLC): > 100 µM | TGI (ACHN renal): > 100 µM | TGI (EKVX NSCLC): 59.5 µM | TGI (KM12 colon): > 100 µM | TGI (OVCAR-5 ovarian): 74.2 µM | TGI (SF-268 CNS): > 100 µM | TGI (SK-OV-3 ovarian): > 100 µM | TGI (U251 CNS): > 100 µM | TGI (UO-31 renal): 29.4 µM

CCOP(=O)(CN=C(c1ccccc1)c1ccccc1)OCC
TGI (A549 NSCLC): > 100 µM | TGI (ACHN renal): > 100 µM | TGI (K-562 leukemia): > 100 µM | TGI (OVCAR-5 ovarian): > 100 µM | TGI (SK-OV-3 ovarian): > 100 µM | TGI (U251 CNS): > 100 µM | TGI (UO-31 renal): > 100 µM

Cc1ccc(Nc2nc(NS(=O)(=O)c3cc(C(=O)Nc4ccc(Cl)cc4)c(Cl)cc3S)n[nH]2)cc1
TGI (A549 NSCLC): > 100 µM | TGI (ACHN renal): > 100 µM | TGI (EKVX NSCLC): > 100 µM | TGI (K-562 leukemia): > 100 µM | TGI (KM12 colon): > 100 µM | TGI (OVCAR-5 ovarian): > 100 µM | TGI (SF-268 CNS): > 100 µM | TGI (SK-OV-3 ovarian): > 100 µM | TGI (U251 CNS): > 100 µM | TGI (UO-31 renal): > 100 µM

CCc1nnc(-c2nsc3ccccc23)s1
TGI (A549 NSCLC): > 100 µM | TGI (ACHN renal): > 100 µM | TGI (EKVX NSCLC): > 100 µM | TGI (K-562 leukemia): > 100 µM | TGI (KM12 colon): > 100 µM | TGI (OVCAR-5 ovarian): > 100 µM | TGI (SF-268 CNS): > 100 µM | TGI (U251 CNS): > 100 µM | TGI (UO-31 renal): > 100 µM

O=C(O)CC1(CC(=O)O)Nc2ccccc2SC1=O
TGI (A549 NSCLC): > 100 µM | TGI (ACHN renal): > 100 µM | TGI (EKVX NSCLC): > 100 µM | TGI (K-562 leukemia): > 100 µM | TGI (KM12 colon): > 100 µM | TGI (OVCAR-5 ovarian): > 100 µM | TGI (SF-268 CNS): > 100 µM | TGI (SK-OV-3 ovarian): > 100 µM | TGI (U251 CNS): > 100 µM | TGI (UO-31 renal): > 100 µM

O=C(O)CC1OCC=C2CN3CCC45C6=CC(=O)C(=O)C([N+](=O)[O-])=C6NC4C1C2CC35 (stereo unspecified)
TGI (A549 NSCLC): > 100 µM | TGI (ACHN renal): > 100 µM | TGI (EKVX NSCLC): > 100 µM | TGI (K-562 leukemia): > 100 µM | TGI (KM12 colon): > 100 µM | TGI (OVCAR-5 ovarian): > 100 µM | TGI (SF-268 CNS): > 100 µM | TGI (SK-OV-3 ovarian): > 100 µM | TGI (U251 CNS): > 100 µM | TGI (UO-31 renal): > 100 µM

CC(CCC(=O)O)C1CCC2C3C(O)CC4CC(O)CCC4(C)C3CC(O)C12C (stereo unspecified)
TGI (A549 NSCLC): > 100 µM | TGI (ACHN renal): > 100 µM | TGI (EKVX NSCLC): > 100 µM | TGI (K-562 leukemia): > 100 µM | TGI (KM12 colon): > 100 µM | TGI (OVCAR-5 ovarian): > 100 µM | TGI (SF-268 CNS): > 100 µM | TGI (SK-OV-3 ovarian): > 100 µM | TGI (U251 CNS): > 100 µM | TGI (UO-31 renal): > 100 µM

COC1=CC(=O)c2c(O)c3c(c(O)c2C1=O)C=C(C)OC3O (stereo unspecified)
TGI (A549 NSCLC): 4.35 µM | TGI (ACHN renal): 6.89 µM | TGI (EKVX NSCLC): 20.2 µM | TGI (K-562 leukemia): 5.07 µM | TGI (KM12 colon): 12.2 µM | TGI (OVCAR-5 ovarian): 5.73 µM | TGI (SF-268 CNS): 5.86 µM | TGI (SK-OV-3 ovarian): 23.7 µM | TGI (U251 CNS): 7.72 µM | TGI (UO-31 renal): 13.3 µM

CN1CCN(c2cc(-c3cc4ccccc4o3)oc(=O)c2C#N)CC1
TGI (A549 NSCLC): > 100 µM | TGI (ACHN renal): > 100 µM | TGI (EKVX NSCLC): > 100 µM | TGI (K-562 leukemia): > 100 µM | TGI (KM12 colon): > 100 µM | TGI (OVCAR-5 ovarian): > 100 µM | TGI (SF-268 CNS): > 100 µM | TGI (U251 CNS): > 100 µM | TGI (UO-31 renal): > 100 µM

COc1ccc(-c2c3c(nc4nc(SC)nc(SC)c24)CCCC3)cc1OC
TGI (A549 NSCLC): > 100 µM | TGI (ACHN renal): > 100 µM | TGI (EKVX NSCLC): > 100 µM | TGI (K-562 leukemia): > 100 µM | TGI (KM12 colon): > 100 µM | TGI (OVCAR-5 ovarian): > 100 µM | TGI (SF-268 CNS): > 100 µM | TGI (SK-OV-3 ovarian): > 100 µM | TGI (U251 CNS): > 100 µM | TGI (UO-31 renal): > 100 µM

CC1OC1C(=O)C1(O)C(C)C(O)C23OC2(C(O)c2c(O)cccc2C3=O)C1O (stereo unspecified)
TGI (A549 NSCLC): 0.519 µM | TGI (EKVX NSCLC): 0.541 µM | TGI (K-562 leukemia): 0.776 µM | TGI (KM12 colon): 1.04 µM | TGI (OVCAR-5 ovarian): 3.08 µM | TGI (SF-268 CNS): 0.525 µM | TGI (SK-OV-3 ovarian): 0.532 µM | TGI (U251 CNS): 1.09 µM | TGI (UO-31 renal): 0.565 µM

C/C(=N\NC(=S)Nc1ccc(C)cc1)c1nc2ncccc2[nH]1
TGI (A549 NSCLC): 44.7 µM | TGI (ACHN renal): 14.3 µM | TGI (EKVX NSCLC): 7.27 µM | TGI (K-562 leukemia): 24.2 µM | TGI (KM12 colon): 32 µM | TGI (OVCAR-5 ovarian): 18.6 µM | TGI (SF-268 CNS): 35.7 µM | TGI (SK-OV-3 ovarian): 58.3 µM | TGI (U251 CNS): 15.4 µM | TGI (UO-31 renal): 4.05 µM
